{"source": "patent US9603878B2", "about": "“Probiotic and prebiotic compositions, and methods of use thereof for treatment and prevention of graft versus host disease” (Evelo Biosciences, Inc., priority 2014, dated 2017)", "key": {"[1]": {"test_system": "Tregs in the large intestine", "conditions": "germ-free mice and vancomycin-treated conventional mice; cited from earlier work"}, "[2]": {"test_system": "tumors", "conditions": "oral administration; anti-PD-1 / anti-CTLA-4 antibody therapy; cited from earlier work"}, "[3]": {"test_system": "mice with GVHD", "assay": "Xylose in drinking water in experimental GVHD model after BMT", "type": "in vivo, mouse"}, "[4]": {"test_system": "Lactobacillus johnsonii", "assay": "Sugar fermentation/growth in media lacking glucose (pH and optical density)"}, "[5]": {"test_system": "normal mice", "assay": "Mouse study: gut microbiome after xylose treatment", "type": "in vivo"}, "[6]": {"test_system": "blautia", "assay": "Sugar fermentation/growth in media lacking glucose (pH and optical density)"}, "[7]": {"test_system": "healthy, adult volunteers", "assay": "Normal human volunteer study of D-xylose: CRP, serum cytokines, T-cell markers", "type": "in vivo", "source_text": "Blood was collected at pre-specified pre- and post-ingestion time points to evaluate C-reactive protein (CRP), serum cytokines (tumor necrosis factor alpha [TNF-α], interleukin [IL]-2, IL-6, interferon gamma [IFN-γ], and IL-10), and T-cell markers CD3, CD4, CD8, CD25, and FOXP3. Plasma was also stored and may be tested for biomarkers and/or metabolic markers for up to 7 years.\nSummary statistics (n, mean, standard deviation, median, minimum, and maximum) were presented for serum concentrations of CRP, flow cytometry T-cell markers (CD3, CD4, CD8, CD25, and FOXP3), and cytokines (TNF-α, IL-2, IL-6, IFN-γ, and IL-10) as per their nominal time points."}, "[8]": {"test_system": "gut microbiome", "assay": "Normal human volunteer study of D-xylose: changes in the gut microbiome (stool 16S)", "type": "in vivo", "conditions": "for alpha diversity of the gut microbiome: over time on study"}, "[9]": {"test_system": "healthy, adult volunteers", "conditions": "human, in vivo", "protocol": "D-xylose is a carbon source generally preferred by anaerobic bacteria. […] A parallel, double-blind, 5 cohort escalation food safety study was conducted to examine D-xylose in normal human volunteers. The study was a double-blind, single-center, parallel group study designed to evaluate the tolerability and potential microbiome changes induced by ingestion of D-xylose at 5 different amounts in healthy, adult volunteers enrolled at 1 study center in the United States (US).\nSubjects were screened for eligibility within 21 days prior to the first planned ingestion of study sweetener on Day 1 (Baseline). […]\nSubjects returned to the study center weekly on Days 8, 15, 22, and 28 for ingestion, tolerability, and compliance evaluations. Safety was evaluated on a continual basis through adverse events (AE) monitoring, clinical laboratory measurements, vital sign monitoring, physical examinations, electrocardiograms (ECGs), telephone follow-up, and electronic subject ingestion diaries. Stool was collected pre-ingestion and at pre-specified time points, and post-ingestion samples were evaluated for changes in the gut microbiome compared with Baseline for all subjects. […]\nSafety was evaluated on a continual basis through AE monitoring, clinical laboratory measurements, vital sign monitoring, physical examinations, ECGs, telephone follow-up, and electronic subject ingestion diaries. […]"}, "[10]": {"test_system": "C57B1/6 female mice", "conditions": "mouse, in vivo", "quoted_text": "The possibility that modification of the microbiome in a given physical location may influence the microbiome at other sites in the body (distal augmentation) was investigated. Seven week old C57B1/6 female mice were acclimatized for 7 days prior to the start of the study by daily handling and shuffling between cages. All mice were housed at three mice per cage in individually vented cages (Thoren, Hazleton, Pa.). At day 0, baseline fresh fecal pellets, and vaginal lavages with 100 μL of sterile double-distilled water were collected and immediately frozen at −80° C. for microbiome analysis. […] Water alone is not expected to influence the microbiome and acted as a negative control. […] The impact of oral vancomycin is therefore expected to be limited to the gastrointestinal tract such that microbiome changes elsewhere in the body (e.g. vagina) would be attributable to distal augmentation. At day 6, fresh fecal pellets and vaginal lavages with 100 μL of sterile double-distilled water were collected and immediately stored at −80° C. for microbiome analysis.\nIsolation and sequencing of microbial DNA from the stool and vaginal samples was performed by DNA Genotek (Ottawa, ON, Canada). The V3-V4 region of the 16S ribosomal subunit was amplified with custom PCR primers and sequenced on an Illumina MiSeq to a minimum acceptable read depth of 25,000 sequences per sample. […]"}}}
{"compound": "CCC(=O)O", "note": "[propionate]", "values": [{"measurement": "numbers of Tregs in the large intestine", "setting": "[1]", "result": "restored normal numbers of Tregs in the large intestine"}]}
{"compound": "CC(=O)O", "note": "[acetate]", "values": [{"measurement": "numbers of Tregs in the large intestine", "setting": "[1]", "result": "restored normal numbers of Tregs in the large intestine"}]}
{"compound": "Bifidobacterium", "values": [{"measurement": "responsiveness to checkpoint inhibitor therapy in cancer", "setting": "[2]", "result": "increases the responsiveness"}]}
{"compound": "Bacteroides", "values": [{"measurement": "responsiveness to checkpoint inhibitor therapy in cancer", "setting": "[2]", "result": "increases the responsiveness"}]}
{"compound": "O=C[C@H](O)[C@@H](O)[C@H](O)CO", "note": "[xylose, D-xylose]", "values": [{"measurement": "survival of mice with GVHD", "setting": "[3]; long-term administration", "result": "led to improved survival of mice with GVHD"}, {"measurement": "Blautia in the intestinal flora", "setting": "[3]; xylose in drinking water, day 14 after BMT", "result": "lead to an expansion of Blautia in the intestinal flora"}, {"measurement": "augmentation / fermentation by lactobacillus", "setting": "[4]", "result": "not lactobacillus"}, {"measurement": "shifts in the gut microbiome", "setting": "[5]", "result": "did not cause major shifts in the gut microbiome but showed some differences at the family level"}, {"measurement": "augmentation / fermentation by blautia", "setting": "[6]", "result": "specifically augments blautia"}, {"measurement": "total T-cells and T-cell subsets over time", "setting": "[7]; any ingestion amount", "result": "No consistent or clinically meaningful changes over time in total T-cells or any T-cell subsets"}, {"measurement": "subjects with normal serum CRP at Baseline and at least 1 post-ingestion CRP value >2.9 mg/L", "setting": "[7]; cohorts combined", "result": 8.3, "unit": "%"}, {"measurement": "serum cytokines (TNF-α, IL-2, IL-6, IFN-γ, IL-10) over time", "setting": "[7]; most data points BLQ", "result": "did not indicate any consistent or clinically meaningful changes over time"}, {"measurement": "gut microbiome community composition over time", "setting": "[8]; regardless of ingestion amount", "result": "no significant changes in community composition"}, {"measurement": "alpha diversity of the gut microbiome", "setting": "[8]; regardless of ingestion amount", "result": "no major shifts in the microbiome alpha diversity"}, {"measurement": "alpha diversity of the gut microbiome", "setting": "[8]; regardless of ingestion amount, listed as D-xylose", "result": "no apparent significant impact on the intra-sample alpha diversity of the gut microbiome"}, {"measurement": "Chao diversity index over time", "setting": "[8]; xylose TID at 1, 2, 8, 12.5 or 15 grams", "result": "overall decrease in the Chao diversity index over time"}, {"measurement": "SAEs, severe AEs, deaths", "setting": "[9]", "result": "No SAEs, severe AEs, or subject deaths were reported"}]}
{"compound": "C[C@H](O)[C@H](O)[C@@H](O)[C@@H](O)C=O", "note": "[rhamnose]", "values": [{"measurement": "augmentation / fermentation by lactobacillus", "setting": "[4]", "result": "not lactobacillus"}, {"measurement": "augmentation / fermentation by blautia", "setting": "[6]", "result": "specifically augments blautia"}]}
{"compound": "CN[C@H](CC(C)C)C(=O)N[C@H]1C(=O)N[C@@H](CC(N)=O)C(=O)N[C@H]2C(=O)N[C@H]3C(=O)N[C@H](C(=O)N[C@H](C(=O)O)c4cc(O)cc(O)c4-c4cc3ccc4O)[C@H](O)c3ccc(c(Cl)c3)Oc3cc2cc(c3O[C@@H]2O[C@H](CO)[C@@H](O)[C@H](O)[C@H]2O[C@H]2C[C@](C)(N)[C@H](O)[C@H](C)O2)Oc2ccc(cc2Cl)[C@H]1O", "note": "[vancomycin]", "values": [{"measurement": "impact on the microbiome of the gut (PCA, family level)", "setting": "[10]", "result": "strong impact on the microbiome of the gut"}, {"measurement": "impact on the vaginal microbiome (PCA, family level)", "setting": "[10]", "result": "showed an overall difference between the PBS and oral vancomycin groups"}]}
